Earlier results in US9668986B2, “Ophthalmic, intra-articular or intravesical preparations containing N-acyl-ethanolamines” (EPITECH GROUP S.R.I., priority 2014, dated 2017).

Legend:
[1] = biological target: cannabinoid receptors CB1 (Homo sapiens, UniProt P21554)
[2] = biological target: CB2 (Homo sapiens, UniProt P34972)
CB2, sequence (P34972 whole entry, species assumed): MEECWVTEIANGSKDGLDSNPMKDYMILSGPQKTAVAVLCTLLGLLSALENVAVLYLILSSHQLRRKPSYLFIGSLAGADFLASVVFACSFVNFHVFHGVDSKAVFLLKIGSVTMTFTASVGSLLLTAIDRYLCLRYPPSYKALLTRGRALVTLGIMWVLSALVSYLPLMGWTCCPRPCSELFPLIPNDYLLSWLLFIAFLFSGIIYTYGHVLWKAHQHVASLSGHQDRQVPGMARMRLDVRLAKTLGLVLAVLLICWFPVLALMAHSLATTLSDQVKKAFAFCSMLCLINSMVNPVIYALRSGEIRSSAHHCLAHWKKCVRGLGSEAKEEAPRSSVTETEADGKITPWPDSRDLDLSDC

cannabinoid receptors CB1, sequence (P21554 whole entry): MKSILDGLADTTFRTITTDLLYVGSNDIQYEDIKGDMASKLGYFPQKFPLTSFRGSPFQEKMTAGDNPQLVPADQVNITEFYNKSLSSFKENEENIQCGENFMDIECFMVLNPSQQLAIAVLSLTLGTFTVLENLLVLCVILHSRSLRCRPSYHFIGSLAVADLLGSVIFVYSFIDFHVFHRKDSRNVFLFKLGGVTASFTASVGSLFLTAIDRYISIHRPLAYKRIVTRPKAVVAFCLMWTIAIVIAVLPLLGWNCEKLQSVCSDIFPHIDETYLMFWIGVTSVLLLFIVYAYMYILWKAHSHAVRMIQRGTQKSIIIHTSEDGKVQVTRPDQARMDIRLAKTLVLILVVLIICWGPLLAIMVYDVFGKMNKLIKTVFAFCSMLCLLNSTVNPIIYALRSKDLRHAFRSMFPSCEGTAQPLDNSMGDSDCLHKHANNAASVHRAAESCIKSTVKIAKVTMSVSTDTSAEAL

- water solubility: not water-soluble
- affinity for CB1 [1]: poor affinity
- affinity for CB2 [2]: poor affinity
Compound: CCCCCCCCCCCCCCCC(=O)NCCO [PEA, N-palmitoylethanolamine]
